Experimental data as given in US20200056988A1, “METHOD OF DETERMINING THE EFFICACY OF ANTIMICROBIALS” (Wisconsin Alumni Research Foundation, priority 2018, published 2020).

Tested on: infection in critically ill and injured adult ICU subjects
Test: Variation (standard deviation) of exhaled 13CO2/12CO2 breath delta value (BDV) as a marker of response to antimicrobial treatment
Type: in vivo, human
Details: single ICU subject of FIG. 15, BAL culture positive for Aspergillus fumigatus; cefuroxime days 1 through 7, cefepime added after day seven
Description: The study was conducted as a multi-center prospective study, at four academic research hospitals, to assess exhaled ^13CO2/^12CO2 BDV as an indicator of infection in 20 critically ill and injured adult ICU subjects. Critically ill adult ICU subjects who were not suspected of having an infection at the time of ICU admission were enrolled as study subjects.
Exhaled breath samples were collected upon subject enrollment and every four hours thereafter until the subject was discharged home, transferred to a general care unit/status, or after seven days of breath sample collection, whichever came first. Each sample was collected in four-hour intervals, calculated from the initial sample time, with a window of ±1 hour. Samples collected outside of the specified time interval were still analyzed. […]
Breath samples were shipped to a central laboratory (Isomark, LLC, Madison, Wis.) within 48 hours of final collection from each subject. The breath samples were analyzed using the Canary™ device. The ^13CO2/^12CO2 ratio of each sample was determined from direct measurement and calculated using Pee Dee Belemnite (PDB) as a standard reference: […]
where BDV is expressed as parts per mil (‰). […] The delta over baseline (DOB) was then calculated by subtracting the baseline sample from subsequent samples as described: […]

CO/N=C(\C(=O)N[C@@H]1C(=O)N2C(C(=O)[O-])=C(C[N+]3(C)CCCC3)CS[C@H]12)c1csc(N)n1 [cefepime]
mean variation of BDV: 0.37 ‰

CO/N=C(\C(=O)N[C@@H]1C(=O)N2C(C(=O)O)=C(COC(N)=O)CS[C@H]12)c1ccco1 [cefuroxime]
mean variation of BDV: 0.72 ‰
